Reference: paper doi:10.1101/2025.01.28.635346v1 (bioRxiv, 2025)
Bridge positions count the residues as written; N and C are the ends. Side chains are listed from the residue outwards. Peptide text beside a SMILES is read from it. * marks the point of attachment. Butanoyl(4-(4-I-phenyl)) = O=C(CCCc1ccc(I)cc1)*; PEG2 = NCCOCCOCCC(=O)O

Assays:
integrin α5β1 = integrin α5β1 (Homo sapiens, UniProt P05556+P08648); assay: ELISA competition assay, integrin α5β1; type: binding
GR = target: T1, GR (Homo sapiens, UniProt P04150); assay: Safetyscan47 NHR Protein Interaction, Agonist; type: cell-based; settings: for Emax: read-out: Max Response
T1 sequence (P04150 1-777): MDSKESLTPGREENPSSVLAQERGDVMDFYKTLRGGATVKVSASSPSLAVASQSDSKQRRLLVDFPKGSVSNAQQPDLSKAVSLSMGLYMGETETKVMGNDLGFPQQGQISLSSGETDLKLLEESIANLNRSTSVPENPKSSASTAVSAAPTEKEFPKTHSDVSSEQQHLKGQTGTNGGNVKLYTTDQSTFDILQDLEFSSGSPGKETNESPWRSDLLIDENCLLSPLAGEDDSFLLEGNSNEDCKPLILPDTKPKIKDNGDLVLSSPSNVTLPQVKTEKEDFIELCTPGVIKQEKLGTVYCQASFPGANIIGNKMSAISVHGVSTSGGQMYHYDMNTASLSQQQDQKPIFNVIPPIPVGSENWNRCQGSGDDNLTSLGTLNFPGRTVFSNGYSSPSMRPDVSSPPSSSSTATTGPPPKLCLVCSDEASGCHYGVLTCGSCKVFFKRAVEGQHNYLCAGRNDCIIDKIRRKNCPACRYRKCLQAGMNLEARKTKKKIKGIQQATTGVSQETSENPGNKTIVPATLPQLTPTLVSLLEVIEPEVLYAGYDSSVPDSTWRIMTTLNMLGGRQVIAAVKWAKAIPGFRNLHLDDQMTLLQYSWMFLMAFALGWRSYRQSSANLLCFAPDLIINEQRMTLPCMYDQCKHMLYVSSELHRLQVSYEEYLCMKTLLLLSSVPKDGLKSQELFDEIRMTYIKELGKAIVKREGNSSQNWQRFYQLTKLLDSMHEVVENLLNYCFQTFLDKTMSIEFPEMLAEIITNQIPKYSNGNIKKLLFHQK

HTR1A [1] = target: T2, HTR1A (Homo sapiens, UniProt P08908); assay: Safetyscan47 GPCR cAMP, Agonist; type: cell-based; settings: for Emax: read-out: Max Response
T2 sequence (P08908 1-422): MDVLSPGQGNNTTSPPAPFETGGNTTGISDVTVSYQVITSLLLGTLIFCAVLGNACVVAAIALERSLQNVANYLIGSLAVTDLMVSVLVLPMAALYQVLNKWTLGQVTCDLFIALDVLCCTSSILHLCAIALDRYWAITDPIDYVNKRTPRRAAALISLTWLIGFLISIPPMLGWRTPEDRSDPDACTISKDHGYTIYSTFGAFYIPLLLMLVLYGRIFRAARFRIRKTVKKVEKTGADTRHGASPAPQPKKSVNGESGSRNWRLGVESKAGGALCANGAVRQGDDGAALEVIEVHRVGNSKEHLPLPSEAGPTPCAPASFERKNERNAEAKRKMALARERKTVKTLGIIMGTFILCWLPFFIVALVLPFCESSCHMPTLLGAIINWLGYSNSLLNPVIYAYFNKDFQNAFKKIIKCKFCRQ

HTR1A [2] = target: T2, HTR1A; assay: Safetyscan47 GPCR cAMP, Antagonist; type: cell-based; settings: for Emax: read-out: Max Response
HTR3A = target: T3, HTR3A (Homo sapiens, UniProt P46098); assay: Safetyscan47 Ion Channel, Blocker; type: cell-based; settings: for Emax: read-out: Max Response
T3 sequence (P46098 24-478): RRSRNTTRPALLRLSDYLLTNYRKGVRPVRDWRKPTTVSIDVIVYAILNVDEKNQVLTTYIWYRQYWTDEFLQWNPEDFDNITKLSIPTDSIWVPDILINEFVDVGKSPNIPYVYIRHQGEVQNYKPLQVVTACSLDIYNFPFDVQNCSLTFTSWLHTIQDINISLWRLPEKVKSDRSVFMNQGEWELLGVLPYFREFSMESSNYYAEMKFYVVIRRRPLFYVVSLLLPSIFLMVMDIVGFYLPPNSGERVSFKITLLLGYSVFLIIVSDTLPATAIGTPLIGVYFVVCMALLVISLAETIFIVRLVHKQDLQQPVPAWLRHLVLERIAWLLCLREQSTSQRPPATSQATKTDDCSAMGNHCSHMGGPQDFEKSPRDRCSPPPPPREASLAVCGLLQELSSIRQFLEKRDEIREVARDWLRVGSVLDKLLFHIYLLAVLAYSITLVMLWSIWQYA

carboxypeptidase Y = carboxypeptidase Y (Saccharomyces cerevisiae, UniProt P00729); assay: Proteolysis test, carboxypeptidase Y treatment for 4 h, HPLC; type: in vitro ADME
CHRM3 = CHRM3 (Homo sapiens, UniProt P20309); assay: Safetyscan47 GPCR Calcium Flux, Agonist; type: cell-based; settings: for Emax: read-out: Max Response
ROCK1 = ROCK1 (Homo sapiens, UniProt Q13464); assay: Safetyscan47 Kinases Binding, Inhibitor; settings: for Emax: read-out: Max Response
OPRD1 = OPRD1 (Homo sapiens, UniProt P41143); assay: Safetyscan47 GPCR cAMP, Agonist; type: cell-based; settings: for Emax: read-out: Max Response
CHRM1 = target: T4, CHRM1 (Homo sapiens, UniProt P11229); assay: Safetyscan47 GPCR Calcium Flux, Agonist; type: cell-based; settings: for Emax: read-out: Max Response
T4 sequence (P11229 1-460): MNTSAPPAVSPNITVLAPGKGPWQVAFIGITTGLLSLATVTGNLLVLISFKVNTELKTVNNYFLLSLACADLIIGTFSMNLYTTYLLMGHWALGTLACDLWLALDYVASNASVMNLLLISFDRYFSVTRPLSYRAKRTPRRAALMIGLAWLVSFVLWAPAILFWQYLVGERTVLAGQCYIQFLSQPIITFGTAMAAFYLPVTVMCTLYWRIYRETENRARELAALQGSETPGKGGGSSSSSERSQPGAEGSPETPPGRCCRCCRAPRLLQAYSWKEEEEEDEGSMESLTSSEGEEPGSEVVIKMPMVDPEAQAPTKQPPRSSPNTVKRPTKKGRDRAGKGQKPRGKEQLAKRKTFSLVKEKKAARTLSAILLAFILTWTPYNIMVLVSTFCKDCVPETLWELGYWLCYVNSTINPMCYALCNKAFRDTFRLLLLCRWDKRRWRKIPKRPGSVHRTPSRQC

integrin α8β1 = integrin α8β1 (Homo sapiens, UniProt P05556+P53708); assay: ELISA competition assay, integrin α8β1; type: binding

SMILES | IC50 (integrin α5β1) [µM] | EC50 (GR) [µM] | Emax (GR) [%] | EC50 (HTR1A [1]) [µM] | Emax (HTR1A [1]) [%] | IC50 (HTR1A [2]) [µM] | Emax (HTR1A [2]) [%] | IC50 (HTR3A) [µM] | Emax (HTR3A) [%] | change in HPLC trace after proteolysis (carboxypeptidase Y) | EC50 (CHRM3) [µM] | Emax (CHRM3) [%] | IC50 (ROCK1) [µM] | Emax (ROCK1) [%] | EC50 (OPRD1) [µM] | Emax (OPRD1) [%] | EC50 (CHRM1) [µM] | Emax (CHRM1) [%] | IC50 (integrin α8β1) [µM]
CC[C@H](C)[C@H](NC(=O)[C@H](CC(C)C)NC(=O)[C@H](CC(=O)O)NC(=O)CNC(=O)[C@H](CCCNC(=N)N)NC(=O)[C@@H](NC(=O)[C@H](Cc1ccccc1)NC(=O)[C@H](Cc1ccc(O)cc1)NC(=O)[C@@H]1CCC(=O)NCC(=O)NCC(=O)N[C@@H](CCCNC(=N)N)C(=O)NCC(=O)N[C@@H](Cc2c[nH]cn2)C(=O)N[C@@H](C(C)C)C(=O)N2CCC[C@H]2C(=O)N1)C(C)C)C(=O)N[C@@H](CO)C(=O)N[C@@H](Cc1ccccc1)C(=O)N[C@@H](Cc1ccc(O)cc1)C(=O)N[C@@H](CCCCN)C(=O)O [lassotide 36] (GGRGHVPEYFVRGDLISFYK-OH; lactam N-8) | 2.35 | > 45 | 0 | > 45 | 0 | > 45 | 0 | > 45 | 8.73 | little or no change | > 45 | 2.89 | > 45 | 19 | > 45 | 6.18 | > 45 | 0.34 | 3.89
CC[C@H](C)[C@H](NC(=O)[C@H](CC(C)C)NC(=O)[C@H](CC(=O)O)NC(=O)CNC(=O)[C@H](CCCNC(=N)N)NC(=O)[C@@H](NC(=O)[C@H](Cc1ccccc1)NC(=O)[C@H](Cc1ccc(O)cc1)NC(=O)[C@@H]1CCC(=O)NCC(=O)NCC(=O)N[C@@H](CCCNC(=N)N)C(=O)NCC(=O)N[C@@H](Cc2c[nH]cn2)C(=O)N[C@@H](C(C)C)C(=O)N2CCC[C@H]2C(=O)N1)C(C)C)C(=O)N[C@@H](CO)C(=O)N[C@@H](Cc1ccccc1)C(=O)N[C@@H](Cc1ccc(O)cc1)C(=O)N[C@@H](CCCCNC(=O)CCOCCOCCNC(=O)CCCc1ccc(I)cc1)C(=O)O [lassotide 47] (GGRGHVPEYFVRGDLISFYK([PEG2-Butanoyl(4-(4-I-phenyl))])-OH; lactam N-8) | 5.02 | > 45 | 0 | > 45 | 30.1 | > 45 | 0 | > 45 | 9.38 | little or no change | > 45 | 1.93 | > 45 | 2.56 | > 45 | 17.4 | > 45 | 1.46 | > 10
